This note sets out measurements from patent publication US8039493B2, “Biaryl sulfonamide derivatives” (Hoffmann-La Roche Inc., priority 2008, dated 2011).

One may read the IC50 as the concentration that inhibits the measured activity by half.

For one assay, the target named is T1, human LXR alpha (Homo sapiens, UniProt Q13133).
T1 construct: human LXR alpha (aa 164 to 447); made in house; host or cells: E. coli BL21 (pLysS)
T1 sequence (Q13133 164-447): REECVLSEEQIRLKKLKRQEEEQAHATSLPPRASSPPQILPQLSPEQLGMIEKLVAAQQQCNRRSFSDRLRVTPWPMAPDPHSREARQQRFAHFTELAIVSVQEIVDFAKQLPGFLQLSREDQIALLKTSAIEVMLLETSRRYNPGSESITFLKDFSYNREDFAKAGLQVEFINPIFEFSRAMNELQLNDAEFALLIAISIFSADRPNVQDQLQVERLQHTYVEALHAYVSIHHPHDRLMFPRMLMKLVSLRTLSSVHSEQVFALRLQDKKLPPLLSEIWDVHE
The assay can be described thus: Radioligand binding assay (scintillation proximity), LXRα-LBD. The conditions noted are these: LXRα-LBD on SPA beads, read-out: LXRalpha Binding IC50. On the procedure:
(§1) The following tests were carried out in order to determine the activity of the compounds of the present invention. […] Mammalian expression vectors were constructed to express full-length human LXR alpha and LXR beta. […] To accomplish this, the portions of the sequences encoding the LBDs were amplified from the full-length clones by PCR and then subcloned into the plasmid vectors.
(§2) Induction, expression, and purification of LBD proteins were performed in E. coli strain BL21 (pLysS) cells by standard methods (Ref: Current Protocols in Molecular Biology, Wiley Press, edited by Ausubel et al).
(§3) Radioligand Binding Assay
(§4) LXR alpha and LXR beta receptor binding were assayed in buffer consisting of 50 mM HEPES, pH 7.4, 10 mM NaCl, 5 mM MgCl2. For each 96-well reaction, 500 ng of LXRα-LBD or 700 ng of LXR beta-LBD proteins were bound to 80 μg or 40 μg SPA beads respectively, in a final volume of 50 μl by shaking. The resulting slurry was incubated for 1 h at RT and centrifuged for 2 min at 1300×g. The supernatant containing unbound protein was removed, and the semi-dry pellet containing the receptor-coated beads was re-suspended in 50 μl of buffer. Radioligand (eg. 100,000 dpm of (N-(2,2,2-trifluoroethyl)-N-[4-(2,2,2-trifluoro-1-hydroxy-1-trifluoromethylethyl)-phenyl]-benzenesulfonamide)) was added, and the reaction incubated at RT for 1 h in the presence of test compounds, and then scintillation proximity counting was performed. All binding assays were performed in 96-well plates and the amount of bound ligand was measured on a Packard TopCount using OptiPlates (Packard). Dose response curves were measured within a range of concentration from 10^−10 M to 10^−4 M.
For orientation: Scintillation proximity formats need no separation of bound from free tracer.

In a further assay the target is T2, human LXR beta (Homo sapiens, UniProt P55055).
T2 construct: human LXR beta (aa 155 to 460); made in house; host or cells: E. coli BL21 (pLysS)
T2 sequence (P55055 155-460): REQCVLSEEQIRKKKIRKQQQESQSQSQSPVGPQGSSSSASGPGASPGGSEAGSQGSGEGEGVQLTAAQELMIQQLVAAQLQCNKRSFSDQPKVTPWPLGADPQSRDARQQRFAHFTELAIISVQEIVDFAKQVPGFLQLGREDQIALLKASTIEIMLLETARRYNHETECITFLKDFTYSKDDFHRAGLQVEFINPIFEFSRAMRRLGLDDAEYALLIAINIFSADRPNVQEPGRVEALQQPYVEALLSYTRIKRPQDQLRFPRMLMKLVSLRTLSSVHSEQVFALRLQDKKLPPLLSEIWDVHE
The assay can be described thus: Radioligand binding assay (scintillation proximity), LXR beta-LBD. The note with it: LXR beta-LBD on SPA beads, read-out: LXRbeta Binding IC50. On the procedure: as §1, §2, §3, §4

Take `CC(C)CN(Cc1cncc(-c2cccc(S(C)(=O)=O)c2)c1)S(=O)(=O)c1ccccc1Cl` [Example 44, 2-Chloro-N-isobutyl-N-[5-(3-methanesulfonyl-phenyl)-pyridin-3-ylmethyl]-benzenesulfonamide]: the results for the IC50 at human LXR alpha and at human LXR beta were 3440 nM and 30 nM, respectively.

`CS(=O)(=O)c1cccc(-c2ccc(CN(Cc3ccccc3F)S(=O)(=O)c3ccccc3C(F)(F)F)s2)c1` [Example 33, N-(2-Fluoro-benzyl)-N-[5-(3-methanesulfonyl-phenyl)-thiophen-2-ylmethyl]-2-trifluoromethyl-benzenesulfonamide]: the half-maximal inhibitory concentration (IC50) at human LXR alpha was 13.5 nM; on human LXR beta, 6.6 nM.

For `CC(C)CN(Cc1ccc(-c2cccc(S(C)(=O)=O)c2)cc1F)S(=O)(=O)c1ccccc1Cl` [Example 42, 2-Chloro-N-(3-fluoro-3′-methanesulfonyl-biphenyl-4-ylmethyl)-N-isobutyl-benzenesulfonamide], the IC50 came to 8.2 nM at human LXR alpha and 6.8 nM on human LXR beta.

On to `CC(C)S(=O)(=O)N(Cc1cccc(-c2cccc(S(C)(=O)=O)c2)c1)Cc1ccccc1F` [Example 52, Propane-2-sulfonic acid (2-fluoro-benzyl)-(3′-methanesulfonyl-biphenyl-3-ylmethyl)-amide], for which the half-maximal inhibitory concentration (IC50) at human LXR alpha turned out to be 610 nM; at human LXR beta, 33.5 nM.

With `CC(C)CN(Cc1ccc(-c2cccc(S(C)(=O)=O)c2)s1)S(=O)(=O)C(F)(F)F` [Example 20, Trifluoro-N-isobutyl-N-[5-(3-methanesulfonyl-phenyl)-thiophen-2-ylmethyl]-methanesulfonamide], the IC50 at human LXR alpha is 3750 nM; on human LXR beta, 270 nM.

Consider `CC(C)CN(Cc1cc(-c2cccc(S(C)(=O)=O)c2)cs1)S(=O)(=O)c1ccccc1Cl` [Example 14, 2-Chloro-N-isobutyl-N-[4-(3-methanesulfonyl-phenyl)-thiophen-2-ylmethyl]-benzenesulfonamide], for which the IC50 at human LXR alpha came to 68 nM; at human LXR beta, 2.2 nM.

For `CS(=O)(=O)c1cccc(-c2ccc(CN(CC3CCCO3)S(=O)(=O)c3ccccc3C(F)(F)F)s2)c1` (stereo not shown) [Example 41, N-[5-(3-Methanesulfonyl-phenyl)-thiophen-2-ylmethyl]-N-(tetrahydro-furan-2-ylmethyl)-2-trifluoromethyl-benzenesulfonamide], the IC50 on human LXR alpha is 790 nM; on human LXR beta it was 37 nM.

In the case of `CCCN(Cc1cccc(-c2cccc(S(C)(=O)=O)c2)c1)S(=O)(=O)C(C)C` [Example 49, Propane-2-sulfonic acid (3′-methanesulfonyl-biphenyl-3-ylmethyl)-propyl-amide], the IC50 stood at 20100 nM at human LXR alpha and 1560 nM on human LXR beta.

As for `CC(C)CN(Cc1ccc(-c2cccc(S(C)(=O)=O)c2)s1)S(=O)(=O)c1cccc(Cl)c1F` [Example 22, 3-Chloro-2-fluoro-N-isobutyl-N-[5-(3-methanesulfonyl-phenyl)-thiophen-2-ylmethyl]-benzenesulfonamide], the IC50 on human LXR alpha was 1380 nM; on human LXR beta it was 22.5 nM.

For `Cc1noc(C)c1CN(Cc1ccc(-c2cccc(S(C)(=O)=O)c2)s1)S(=O)(=O)c1ccccc1C(F)(F)F` [Example 34, N-(3,5-Dimethyl-isoxazol-4-ylmethyl)-N-[5-(3-methanesulfonyl-phenyl)-thiophen-2-ylmethyl]-2-trifluoromethyl-benzenesulfonamide], the IC50 at human LXR alpha is 60.5 nM; at human LXR beta, 83 nM.

Turning to `CC(C)CN(Cc1ccc(-c2cccc(S(C)(=O)=O)c2)s1)S(=O)(=O)c1ccccc1Cl` [Example 5, 2-Chloro-N-isobutyl-N-[5-(3-methanesulfonyl-phenyl)-thiophen-2-ylmethyl]-benzenesulfonamide], the IC50 on human LXR alpha stood at 1170 nM; on human LXR beta, 102 nM.

As for `CC(C)N(Cc1ccc(-c2cccc(S(C)(=O)=O)c2)s1)S(=O)(=O)c1ccccc1C(F)(F)F` [Example 30, N-Isopropyl-N-[5-(3-methanesulfonyl-phenyl)-thiophen-2-ylmethyl]-2-trifluoromethyl-benzenesulfonamide], the IC50 turned out to be 7860 nM on human LXR alpha and 470 nM on human LXR beta.

On to `COC(=O)c1ccccc1S(=O)(=O)N(Cc1ccc(-c2cccc(S(C)(=O)=O)c2)s1)CC(C)C` [Example 19, 2-{Isobutyl-[5-(3-methanesulfonyl-phenyl)-thiophen-2-ylmethyl]-sulfamoyl}-benzoic acid methyl ester], for which the results for the IC50 on human LXR alpha and on human LXR beta were 2630 nM and 59 nM, respectively.

Regarding `CS(=O)(=O)c1cccc(-c2ccc(CN(CC3CCC3)S(=O)(=O)c3ccccc3C(F)(F)F)s2)c1` [Example 36, N-Cyclobutylmethyl-N-[5-(3-methanesulfonyl-phenyl)-thiophen-2-ylmethyl]-2-trifluoromethyl-benzenesulfonamide], the figures for the IC50 on human LXR alpha and on human LXR beta were 665 nM and 17.5 nM, respectively.

Turning to `COc1ccc(Cl)cc1S(=O)(=O)N(Cc1ccc(-c2cccc(S(C)(=O)=O)c2)s1)CC(C)C` [Example 23, 5-Chloro-N-isobutyl-N-[5-(3-methanesulfonyl-phenyl)-thiophen-2-ylmethyl]-2-methoxy-benzenesulfonamide], the IC50 on human LXR alpha came to 1520 nM; at human LXR beta, 19 nM.

On to `CC(C)CN(Cc1ccc(-c2cccc(S(C)(=O)=O)c2)s1)S(=O)(=O)c1ccccc1C#N` [Example 26, 2-Cyano-N-isobutyl-N-[5-(3-methanesulfonyl-phenyl)-thiophen-2-ylmethyl]-benzenesulfonamide], for which the IC50 at human LXR alpha amounted to 15900 nM; on human LXR beta, 98 nM.

As for `CC(C)CN(Cc1ccc(-c2cccc(S(C)(=O)=O)c2)s1)S(=O)(=O)c1cccc(Cl)c1` [Example 8, 3-Chloro-N-isobutyl-N-[5-(3-methanesulfonyl-phenyl)-thiophen-2-ylmethyl]-benzenesulfonamide], the IC50 on human LXR alpha was 925 nM; on human LXR beta it was 560 nM.

Consider `CC(C)CN(Cc1cc(-c2cccc(S(=O)(=O)NC(C)(C)C)c2)cs1)S(=O)(=O)c1ccccc1Cl` [Example 56, 2-Chloro-N-isobutyl-N-[4-(3-tert-butylaminosulfonyl-phenyl)-thiophen-2-ylmethyl]-benzenesulfonamide], for which the concentration for half-maximal inhibition (IC50) at human LXR alpha amounted to 17700 nM; on human LXR beta, 39100 nM.

On to `CC(C)CN(Cc1cc(-c2cccc(S(N)(=O)=O)c2)cs1)S(=O)(=O)c1ccccc1Cl` [Example 54, 2-Chloro-N-isobutyl-N-[4-(3-aminosulfonyl-phenyl)-thiophen-2-ylmethyl]-benzenesulfonamide], for which the IC50 on human LXR alpha was determined as 84.5 nM; at human LXR beta it was 7.4 nM.

For the molecule `CCN(CC)C(=O)CN(Cc1ccc(-c2cccc(S(C)(=O)=O)c2)s1)S(=O)(=O)c1ccccc1C(F)(F)F` [Example 38, N,N-Diethyl-2-[[5-(3-methanesulfonyl-phenyl)-thiophen-2-ylmethyl]-(2-trifluoromethyl-benzenesulfonyl)-amino]-acetamide], the 50% inhibitory concentration (IC50) on human LXR alpha was 2410 nM; on human LXR beta, 160 nM.

Regarding `CC(C)CN(Cc1cccc(-c2cccc(S(C)(=O)=O)c2)n1)S(=O)(=O)c1ccccc1Cl` [Example 47, 2-Chloro-N-isobutyl-N-[6-(3-methanesulfonyl-phenyl)-pyridin-2-ylmethyl]-benzenesulfonamide], the IC50 at human LXR alpha was determined as 1480 nM; at human LXR beta it was 49.5 nM.

`CC(C)CN(Cc1ccc(-c2cccc(S(C)(=O)=O)c2)s1)S(=O)(=O)c1cccs1` [Example 21, Thiophene-2-sulfonic acid isobutyl-[5-(3-methanesulfonyl-phenyl)-thiophen-2-ylmethyl]-amide]: the IC50 at human LXR alpha was found to be 605 nM; at human LXR beta, 140 nM.

For the molecule `CC(C)CN(Cc1cnc(-c2cccc(S(C)(=O)=O)c2)s1)S(=O)(=O)c1ccccc1Cl` [Example 11, 2-Chloro-N-isobutyl-N-[2-(3-methanesulfonyl-phenyl)-thiazol-5-ylmethyl]-benzenesulfonamide], the IC50 on human LXR alpha was 8780 nM; on human LXR beta it was 170 nM.
